In patent US20260191849A1, “PHARMACEUTICAL COMPOSITION FOR TREATMENT OF CANCER” (WIGEN BIOMEDICINE TECHNOLOGY (SHANGHAI) CO., LTD., priority 2022, published 2026):
Blank lines part the entries; values can stand above or below the compound they belong to.

Assays:
[1] = tested on: HT29 subcutaneous xenograft tumors; assay: In vivo pharmacodynamic study, HT29 subcutaneous xenograft tumor model of mice (Biological Example 3); design: species or system BALB/c nude mice; details: 80 mg/kg intragastric once daily, day 28
Method: BALB/c nude mice were each inoculated subcutaneously with 5×10^6 HT29 cells on the left dorsal side. After the tumors grew to 100-150 mm^3, the mice were randomly divided into the following groups for intragastric administration once daily: group 1: vehicle control group; group 2: compound 661 (80 mg/kg); group 3: compound 669 (80 mg/kg); group 4: compound 677 (80 mg/kg); group 5: compound 714 (80 mg/kg); group 6: compound 727 (80 mg/kg); group 7: compound 740 (80 mg/kg); and group 8: AMG65 (80 mg/kg). The tumor volume was measured twice weekly and at the end of administration. […].

[2] = tested on: HT29 subcutaneous xenograft tumors; assay: In vivo pharmacodynamic study of combination therapy, HT29 subcutaneous xenograft tumor model of mice (Biological Example 14); design: species or system BALB/c nude mice
Source text: BALB/c nude mice were each inoculated subcutaneously with 5×10^6 HT29 cells on the left dorsal side. After the tumors grew to 100-150 mm^3, the mice were randomly divided into the following groups for intragastric administration once daily for 14 consecutive days: group 1: vehicle control group; group 2: AMG650 (50 mpk, PO, QD); group 3: compound 714 (50 mpk, PO, QD); group 4: AMG650 (50 mpk, PO, QD)+Onvasertib (20 mpk, PO, QD); group 5: compound 714 (50 mpk, PO, QD)+Onvasertib (20 mpk, PO, QD); and group 6: Onvasertib (20 mpk, PO, QD). The administration to all the groups was stopped on day 15, and the tumor growth continued to be observed until day 21. The tumor volume was measured twice weekly and at the end of administration. […]

HT29 cells [3] = assay: Combined use of compound 257 with PLK1 inhibitor on HT29 cell viability, 72 h (Biological Example 5); format: cell-based; details: for IC50: Homo sapiens, HT-29, 72 h, HT29 cells
Method: (§1) HT29 cells were seeded on a 384-well plate at 3000 cells/well. After overnight adherence culture, DMSO or compound 257 serially diluted in a 1:5 ratio from 5 μM and a PLK1 inhibitor with a specified concentration were added. The cell viability was assessed 72 h after dosing by measuring the intracellular ATP content. The inhibition percentages of viable cells by the compounds were calculated by comparing with the DMSO group, and the IC50 values were also calculated.

HCT116 cells [4] = assay: Combined use of compound 257 with PLK1 inhibitor on HCT116 cell viability, 72 h (Biological Example 6); format: cell-based
Method: as §1, with “HCT116” for “HT29”

HCT116 cells [5] = assay: Combined use of compound 257 with PLK1 inhibitor (CYC140, TAK-960) on HCT116 cell viability, 168 h (Biological Example 10); format: cell-based
Method: as §1, with “HCT116” for “HT29”, “400 nM” for “5 μM”, “168” for “72”

HT29 cells [6] = assay: Combined use of compound 257 with Aurora B inhibitor on HT29 cell viability, 72 h (Biological Example 11); format: cell-based; details: for IC50: Homo sapiens, HT-29, 72 h, HT29 cells
Method: as §1, with “an Aurora B” for “a PLK1”

HCT116 cells [7] = assay: Combined use of compound 257 with Aurora B inhibitor on HCT116 cell viability, 72 h (Biological Example 12); format: cell-based
Method: as §1, with “HCT116” for “HT29”, “an Aurora B” for “a PLK1”

[8] = PO QD 14 days, AMG650/714 50 mpk, Onvasertib 20 mpk, day 15
[9] = PO QD 14 days, AMG650/714 50 mpk, Onvasertib 20 mpk, day 21, after stop of administration

Compound: Cc1cc(NC(=O)c2ccc(NS(=O)(=O)CCO)cc2N2CCC3(CC2)CC3)nc(N2CCC(F)(F)CC2)n1 [AMG650]
- TGI [1]: 64%
- Tumor volume on day 1 of administration ([2]; PO QD 14 days, AMG650/714 50 mpk, Onvasertib 20 mpk, day 1 (baseline)): 132 mm^3
- TGI on day 15 [2, 8]: 115%
- Tumor volume on day 15 of administration [2, 8]: 49 mm^3
- TGI on day 21 [2, 9]: 100%
- Tumor volume on day 21 of administration [2, 9]: 126 mm^3
- tumor inhibitory effect, combined use with the PLK1 inhibitor Onvasertib compared with monotherapy ([2]; combined with Onvasertib, in words): stronger tumor inhibitory effect
- therapeutic efficacy of monotherapy in HT29-bearing mice ([2]; monotherapy, in words): able to inhibit tumor growth

- IC50 (HT29 cells [3]; BI 2536 0 nM): 13.5 nM
- IC50 (HT29 cells [3]; BI 2536 1.25 nM): 9.9 nM
- IC50 (HT29 cells [3]; BI 2536 2.5 nM): 6.2 nM
- IC50 (HT29 cells [3]; BI 2536 5 nM): 2 nM
- IC50 (HT29 cells [3]; BI 2536 10 nM): 0.6 nM
- IC50 (HT29 cells [3]; GSK461364 0 nM): 13.5 nM
- IC50 (HT29 cells [3]; GSK461364 1.25 nM): 14.3 nM
- IC50 (HT29 cells [3]; GSK461364 2.5 nM): 8.8 nM
- IC50 (HT29 cells [3]; GSK461364 5 nM): 3.3 nM
- IC50 (HT29 cells [3]; GSK461364 10 nM): 0.5 nM
- IC50 (HT29 cells [3]; MLN0905 0 nM): 13.1 nM
- IC50 (HT29 cells [3]; MLN0905 12.5 nM): 4.7 nM
- IC50 (HT29 cells [3]; MLN0905 25 nM): 0.5 nM
- IC50 (HT29 cells [3]; Onvansertib 0 nM): 12.7 nM
- IC50 (HT29 cells [3]; Onvansertib 12.5 nM): 5.2 nM
- IC50 (HT29 cells [3]; Onvansertib 25 nM): 0.8 nM
- IC50 (HT29 cells [3]; Rigosertib 0 nM): 14.5 nM
- IC50 (HT29 cells [3]; Rigosertib 12.5 nM): 12.2 nM
- IC50 (HT29 cells [3]; Rigosertib 25 nM): 15.2 nM
- IC50 (HT29 cells [3]; Rigosertib 50 nM): 9.1 nM
- IC50 (HT29 cells [3]; Rigosertib 100 nM): 0.4 nM
- IC50 (HT29 cells [3]; Ro3280 0 nM): 13.6 nM
- IC50 (HT29 cells [3]; Ro3280 12.5 nM): 2.9 nM
- IC50 (HT29 cells [3]; Ro3280 25 nM): 0.4 nM
- IC50 (HT29 cells [3]; Volasertib 0 nM): 13.1 nM
- IC50 (HT29 cells [3]; Volasertib 12.5 nM): 1.1 nM
- IC50 (HT29 cells [3]; Volasertib 25 nM): 0.7 nM
- IC50 (HCT116 cells [4]; HCT116 cells, Volasertib 10 nM): > 10000 nM
- IC50 (HCT116 cells [4]; HCT116 cells, Volasertib 50 nM): > 10000 nM
- IC50 (HCT116 cells [4]; Homo sapiens, HCT-116, HCT116 cells, Volasertib 0 nM): > 10000 nM
- IC50 (HCT116 cells [5]; HCT116 cells, CYC140 (Plogosertib) 1.6 nM): > 400 nM
- IC50 (HCT116 cells [5]; HCT116 cells, CYC140 (Plogosertib) 8 nM): > 400 nM
- IC50 (HCT116 cells [5]; HCT116 cells, TAK-960 0 nM): > 400 nM
- IC50 (HCT116 cells [5]; HCT116 cells, TAK-960 8 nM): > 400 nM
- IC50 (HCT116 cells [5]; HCT116 cells, TAK-960 40 nM): > 400 nM
- IC50 (HCT116 cells [5]; Homo sapiens, HCT-116, HCT116 cells, CYC140 (Plogosertib) 0 nM): > 400 nM
- IC50 (HT29 cells [6]; Barasertib 0 nM): 13.9 nM
- IC50 (HT29 cells [6]; Barasertib 20 nM): 7.3 nM
- IC50 (HT29 cells [6]; Barasertib 100 nM): 4.2 nM
- IC50 (HT29 cells [6]; Barasertib 500 nM): 3.3 nM
- IC50 (HT29 cells [6]; SP-96 0 nM): 14.5 nM
- IC50 (HT29 cells [6]; SP-96 20 nM): 16.1 nM
- IC50 (HT29 cells [6]; SP-96 100 nM): 14.5 nM
- IC50 (HT29 cells [6]; SP-96 500 nM): 5.8 nM
- IC50 (HCT116 cells [7]; HCT116 cells, Barasertib 0 nM): > 10000 nM
- IC50 (HCT116 cells [7]; HCT116 cells, Barasertib 10 nM): > 10000 nM
- IC50 (HCT116 cells [7]; HCT116 cells, Barasertib 100 nM): > 10000 nM
- IC50 (HCT116 cells [7]; Homo sapiens, HCT-116, HCT116 cells, Barasertib 1000 nM): > 10000 nM
Compound: COc1ccc(NC(=O)c2ccc(NS(=O)(=O)CCO)cc2N2CCC3(CC2)CC3)nc1N1CCC(F)(F)CC1 [Compound 257]
- inhibitory effect on HT-29 cells, combined use with the PLK1 inhibitor compared with monotherapy (HT29 cells [3]; in words): stronger inhibitory effect
- anti-proliferative activity against HCT116 cells, monotherapy (HCT116 cells [4]; in words): did not exhibit anti-proliferative activity
- synergistic effect on HCT116 cell viability, combined use with the PLK1 inhibitor (HCT116 cells [4]; in words): no significant synergistic effect
- synergistic effect on HCT116 cell viability, combined use with the PLK1 inhibitor (HCT116 cells [5]; CYC140 or TAK-960, in words): no significant synergistic effect
- anti-proliferative activity against HCT116 cells, monotherapy (HCT116 cells [5]; in words): did not exhibit anti-proliferative activity
- inhibitory effect on HT-29 cells, combined use with the Aurora B inhibitor compared with monotherapy (HT29 cells [6]; in words): stronger inhibitory effect
- anti-proliferative activity against HCT116 cells, monotherapy (HCT116 cells [7]; in words): did not exhibit anti-proliferative activity
- synergistic effect on HCT116 cell viability, combined use with the Aurora B inhibitor (HCT116 cells [7]; in words): no significant synergistic effect
